Here are results for two molecules from patent US20140128357A1, “METHODS OF PRODUCING AND USING BRASSINOSTEROIDS TO PROMOTE GROWTH, REPAIR AND MAINTENANCE OF SKELETAL MUSCLE AND SKIN” (Rutgers University, priority 2010, published 2014).

Structures are written as SMILES. Marks after values point to notes of the source that are not given here.

A short description of assay [1]: Body composition and blood biochemistry, rats on normal diet, 24 d oral HB (Protocol 1). It counts as in vivo, rat. As to conditions: for Bone mineral content / Fat mass / Lean mass / change in fat mass vs control / increase in lean body mass vs control: DEXA. As for the experimental part:
(§1) Six-week-old male Wistar rats (180-220 g, Charles River Laboratories, MA) were housed in individual chambers in a room maintained at a constant room temperature with 12 h light-dark cycle. Animals had free access to food and water. Animals were allowed to adapt to new conditions for 7 d and handling the animals was carried out daily during this time to reduce the stress of physical manipulation. Animals were randomized into groups according to bodyweight 1 d prior to dosing.
The body weight of each animal and the total amount of food consumed (accounted for spillage) were recorded every 2 d for the duration of the experiment. At the end of the experiment, blood was collected by heart puncture after CO2 inhalation and animal body composition was assessed by DEXA dual-energy X-ray absorptiometry analysis using a Lunar Prodigy Densitometer (GE Healthcare, Waukesha, Wis.). At necropsy, tissue weights were recorded. Tissue samples were collected by snap-freezing in liquid nitrogen and stored at −80° C. for further studies. Total RNA was isolated using Trizol, its quantity and purity were determined using a NanoDrop (Nanodrop Technologies, Wilmington, Del.).
(§2) Blood samples were taken from overnight-fasted animals by heart puncture, collected in EDTA-coated tubes, centrifuged 1,500 g for 20 min, and separated plasma was stored at −80° C. until analysis. Glucose was measured in blood samples using a Lifescan glucometer (Johnson and Johnson, New Brunswick, N.J.). […] Plasma triglycerides and total cholesterol were measured by enzymatic colorimetric assays (Wako Diagnostics, Richmond, Va.). Total testosterone in plasma samples was quantified by an ELISA assay (DRG Diagnostics, Marburg, Germany).

Assay [2] is described as follows: Body composition and blood biochemistry, rats on high-protein diet, 24 d oral HB (Protocol 2). It counts as in vivo, rat. As to conditions: for Bone mineral content / Fat mass / Lean mass: DEXA. As for the experimental part:
as §1
Protocol 2: Three groups of Wistar rats (n=8), fed a high-protein diet containing 39.4% protein, 10.0% fat, 4.3% fiber, and 37.0% carbohydrates, resulting in 3.93 kcal/g energy value (#5779 diet, Testdiet/Purina, Richmond, Ind.), were gavaged daily for 24 d with 1 ml of vehicle (5% DMSO in corn oil), 20 or 60 mg/kg HB. All procedures and measurements followed protocol 1.
as §2

For assay [3], the system named is elastin mRNA in human neonatal dermal fibroblasts (HNDF). The experiment in a line: Elastin gene expression in human dermal fibroblasts, qPCR. It counts as cell-based. As to conditions: 16 h. As for the experimental part:
Human neonatal dermal fibroblasts (HNDF) were maintained in DMEM+10% FBS and were kept in a humidified 37° C. incubator with 5% CO2. Cells were plated at a density of 1×10^4 cells per well in a 24-well plate and incubated for 24 h, or until 100% confluency was reached. Subsequently, the media was removed and cells were washed with 500 μL PBS twice to remove detached cells or cell debris. HNDF were then treated for 16 h as follows: DMEM only, retinoic Acid 5 μM, retinoic acid 10 μM, Homocastasterone 5 μM and Homocastasterone 10 μM.
RNA was extracted from HNDF using Trizol reagent (Invitrogen) following manufacturer instructions. RNA was quantified spectrophotometrically by absorbance measurements at 260 nm and 280 nm using the NanoDrop system (NanoDrop Technologies, Wilmington, Del.). Quality of RNA was assessed by separation in gel-electrophoresis. To remove any traces of DNA contamination, RNA was then treated with Dnase I (Invitrogen) following the manufacturer guidelines. Complementary DNAs (cDNAs) were synthesized using 3.0 μg of RNA for each sample using Applied Biosystems High Capacity cDNA Reverse Transcription Kit following the manufacturer's protocol.
Quantitative RT-PCR (qPCR) amplifications were carried out in triplicate on an ABI 7300 Real-Time Detection System in a total volume of 25 μl containing 12.5 μl Brilliant SYBR® Green PCR master mix (Applied Biosystems), 5 μl of the 1:25 diluted cDNA, 0.5 μl of 6 μM gene-specific primers (IDT, Coralville, Iowa) and […] PCR-grade water. Primers were synthesized by Integrated DNA Technologies, Inc. (Coralville, Iowa, USA) as follows: β-actin, forward primer 5′-ACGTTGCTATCCAGGCTGTGCTAT-3′ (SEQ ID NO: 1), reverse primer 5′-CTCGGTGAGGATCTTCATGAGGTAGT-3′ (SEQ ID NO: 2); elastin, forward primer 5′-AAGCAGCAGCAAAGTTCGGT-3′ (SEQ ID NO: 3), and reverse primer 5′-ACTAAGCCTGCAGCAGCTCCATA-3′ (SEQ ID NO: 4). qPCR amplifications were performed on the 7300 Real Time PCR System (A&B Applied Biosystems) using 1 cycle at 50° C. for 2 min, 1 cycle at 95° C. for 10 min, followed by 40 cycles of 15 s at 95° C. and 1 min at 60° C. The dissociation curve was completed with one cycle of 15 s at 95° C., 1 min at 60° C., and 15 s of 95° C. No RT (NRT) and no template control (NTC) were included in each experiment as quality control steps. Target mRNA expression was analyzed using the ΔΔCt method and normalized with respect to the expression of the β-actin housekeeping gene. Cells treated with DMEM only (negative control) served as the calibrator sample in this study, and a value of 1.0 was assigned to the target gene expression of the calibrator sample. All samples were run in triplicate. A p value of 0.001 was considered to be significant.
On the technique in general: Real-time PCR tracks product formation cycle by cycle.

As for `CC[C@@H](C(C)C)[C@H](O)[C@@H](O)[C@@H](C)[C@H]1CC[C@H]2[C@@H]3COC(=O)[C@H]4C[C@H](O)[C@H](O)C[C@]4(C)[C@H]3CC[C@]12C` [Compound 1, (22S,23S,24S)-2α,3α,22,23-tetrahydroxy-24 ethyl-β-homo-7-oxo-5α-cholestane-6-one], in assay [1] (20 mg/kg oral daily 24 d), the Body weight amounted to 324.3 ± 11.5 g, the Body weight gain worked out at 126.6 ± 7.1 g, the Gastrocnemius muscle stood at 2.07 ± 0.06 g and the “increase in gastrocnemius muscle mass” value is listed as 15.6%. In assay [1] (20 mg/kg oral daily 24 d), the “increase of total body weight gain relative to initial body weight, compared with vehicle-treated controls” value is listed as 18.3%; the Bone mineral content amounted to 7.0 ± 0.3 g; the Fat mass is 49.0 ± 4.3 g; the Lean mass turned out to be 268.3 ± 9.0 g. Moreover, in assay [1] (20 mg/kg oral daily 24 d), the “change in fat mass vs control” value is −3.9% and the “increase in lean body mass vs control” value came to 7.0%. Besides, in assay [1] (60 mg/kg oral daily 24 d), the Body weight is recorded as 342.3 ± 4.9 g, the Body weight gain is 135.7 ± 9.4 g, the Gastrocnemius muscle is given as 2.13 ± 0.12 g and the “increase in gastrocnemius muscle mass” value is given as 19.0%. In assay [1] (60 mg/kg oral daily 24 d), the “increase of total body weight gain relative to initial body weight, compared with vehicle-treated controls” value was 26.8%; the Bone mineral content is 7.4 ± 0.1 g; the Fat mass came out at 48.5 ± 3.8 g; the Lean mass amounted to 286.5 ± 4.3 g. Moreover, in assay [1] (60 mg/kg oral daily 24 d), the “change in fat mass vs control” value was −4.9% and the “increase in lean body mass vs control” value was found to be 14.2%. In assay [2] (20 mg/kg oral daily 24 d), this molecule registered a Body weight of 337.6 ± 6.4 g, a Body weight gain of 98.3 ± 5.2 g, a Gastrocnemius muscle of 1.98 ± 0.01 g and a Bone mineral content of 7.5 ± 0.2 g. In assay [2] (20 mg/kg oral daily 24 d), this molecule displayed a Fat mass of 68.6 ± 3.1 g and a Lean mass of 246.8 ± 7.4 g. In assay [2] (60 mg/kg oral daily 24 d), this molecule had a Body weight of 335.8 ± 5.1 g, a Body weight gain of 91.1 ± 3.2 g, a Gastrocnemius muscle of 2.17 ± 0.03 g and a Bone mineral content of 7.4 ± 0.1 g. In addition, in assay [2] (60 mg/kg oral daily 24 d), the Fat mass amounted to 61.2 ± 3.8 g and the Lean mass was determined as 258.6 ± 2.7 g.

For `CC[C@@H](C(C)C)[C@H](O)[C@@H](O)[C@@H](C)[C@H]1CC[C@H]2[C@@H]3CC(=O)[C@H]4C[C@H](O)[C@H](O)C[C@]4(C)[C@H]3CC[C@]12C` [Compound 2, (22S,23S,24S)-2α,3α, 22,23-tetrahydroxy-24-ethyl-5α-cholestan-6-one], the “Increase in elastin mRNA levels (-fold over control)” value in assay [3] (5 μM) is given as 1.7 fold; in assay [3] (10 μM, listed as Homocastasterone), 3.2** fold; in assay [3] (10 μM, listed as homocastasterone), “up to 3.23±0.4 fold”.
